# According to PubChem BioAssay AID624281 (Broad Institute, 2012):
# Activity calls are given as the source filed them. The rule behind the calls is not given here.
# Test system: not listed separately
# Assay: Light production inducers in absence of autoinducers, V. cholerae DH231, dose response (AID 624281)
# Conditions: V. cholerae DH231 (ΔcqsS ΔluxS) lux bioluminescence, 6 h; at 35 µM (top of the series)
row,Compound,luminescence activation
1,CCCn1nnnc1NCc1ccc(N(CC)CC)cc1,-19.9% (inactive)
2,Cc1ccc(CC(=O)NC2CCCC2)cc1,0.807% (inactive)
3,CCCn1nnnc1NCc1ccc(N2CCCC2)cc1,-14% (inactive)
4,Cc1c(Cl)cccc1-n1cnc(=O)c2ccccc21,-4.11% (inactive)
5,Cc1ccc(OCCNC(=O)c2cccc(C)c2)cc1,-33.1% (inactive)
6,COc1ccccc1NC(=O)COC(=O)c1oc2ccccc2c1C,-6.24% (inactive)
7,O=c1ncn(-c2cccc(Cl)c2)c2ccccc12,14.1% (inactive)
8,CCn1nnnc1NCc1ccc(N2CCCC2)cc1,-52.4% (inactive)
9,CCC(C)NC(=O)Cc1ccc(-c2ccccc2)cc1 (stereo not given),-15.3% (inactive)
10,CCn1nnc(NCc2ccc(C)cc2)n1,4.08% (inactive)
11,O=C(Cc1ccc(-c2ccccc2)cc1)NC1CCCC1,-8.42% (inactive)
12,CCOc1ccc(Nc2ccc3nonc3c2[N+](=O)[O-])cc1,-40.9% (inactive)
13,COc1ccc(Cl)cc1NC(=O)COC(=O)c1ccc(C)o1,-3.04% (inactive)
14,CCCn1nnnc1NCc1ccc(C(C)C)cc1,-30.3% (inactive)
15,COc1ccccc1NC(=O)COC(=O)c1ccc(C)cc1,8.61% (inactive)
16,CCCn1nnnc1NCc1ccccc1Cl,-4.59% (inactive)
17,CCn1c(CC(=O)Nc2cccc(Cl)c2Cl)nnc1SCCOc1ccc(OC)cc1,-63.2% (inactive)

# Test system: V. cholerae DH231 (ΔcqsS ΔluxS) lux bioluminescence, 6 h
# Assay: as above
# Conditions: not given
row,Compound,AC40
1,Cc1ccc2cc3c(NC(=O)c4ccco4)nn(C)c3nc2c1,2.03 µM
2,O=C(Nc1nnc(-c2ccc3c(c2)OCCO3)o1)C1CCCCC1,0.883 µM
3,COc1ccccc1NC(=O)COC(=O)c1cc2c(s1)CCC2,> 35 µM (inactive)
